According to patent US20190008897A1, “COMPOSITIONS AND METHODS FOR PRODUCING PRO-INFLAMMATORY MACROPHAGES” (UNIVERSITY OF WASHINGTON, priority 2015, published 2019):

Key:
MΦ-cTLR4 cells [1] = test: ELISA for VEGF-A in MΦ-cTLR4 medium; type: cell-based, murine; conditions: for VEGF expression compared to controls: single treatment (FIG. 22A)
Experimental: In order to determine if the MΦ-cTLR4 cells were expressing the key angiogenic molecule VEGF-A, an ELISA was performed to test for VEGF-A levels in MΦ-cTLR4 medium following various treatments (FIG. 22A). […] Since studies have shown human and rat MΦs express increased VEGF with IFN-γ treatment, the response was also tested with this factor.

MΦ-cTLR4 cells [2] = test: Cytokine profile (ELISA of supernatants) of MΦ-cTLR4 cells; type: cell-based, murine
Experimental: We tested IL-6 and TNFα concentrations in supernatants of transduced RAW264.7 cells in vitro. Briefly, MΦ-cTLR4 cells (1×106) were plated in each well of a 6-well plate and treated with vehicle (100% EtOH), LPS (100 ng/mL), CID drug (50 nM), or left untreated in DMEM without serum. Supernatants were collected and tested using the mouse IL-6 ELISA Ready-SET-Go! and the mouse TNFα ELISA Ready-SET-Go! Kits (eBioscience) according to the manufacturer's instructions. Plates were read at 450 nm with a 570 nm wavelength subtraction, normalized to standard solutions, and concentrations (pg/mL) were calculated.

[3] = tested on: NF-κB promoter in MΦ-cTLR4 cells; test: Dual-Luciferase NF-κB reporter assay; type: cell-based, murine; conditions: CID 50 nM, 4 hours; compared to vehicle
Experimental: Two hundred thousand cells/well were seeded in 24-well plates. The following day each well was transfected with a total of 0.8 μg plasmid DNA, which consisted of a 20:1 ratio of pBllX-LUC (NFκB reporter construct):pRL (Renilla luciferase construct). The promoterless pGL4.10 vector was also transfected in a 20:1 ratio of pGL4.10:pRL, as a control. Transfections of each well were performed with 2 μL Lipofectamine 2000 (Invitrogen). The following morning transfection reagents were replaced with fresh serum-free medium and treated with either vehicle (100% EtOH) or CID drug (50 nM) for 4 hours. Cell lysate was harvested and luciferase activity was measured using a Dual-Luciferase® reporter assay kit (Promega) according to manufacturer's instructions. All groups were normalized to Renilla luciferase.

[4] = tested on: ERK1/2 phosphorylation in MΦ-cTLR4 cells; test: Western blot for p-ERK and total ERK (MyD88-dependent pathway); type: cell-based, murine; conditions: 0 to 60 minutes; CID 50 nM, LPS 100 ng/mL
Experimental: (§1) Protein from RAW264.7, MΦ-T2A (vector control cells), and MΦ-cTLR4 cell monolayers were extracted by lysis in Laemmli buffer containing 1× Halt Protease Inhibitor cocktail (Thermo Scientific). Following lysis, samples were boiled and protein concentration was determined by performing a BCA assay from Thermo Scientific. Samples (10-30 μg of lysates) were run on 4-20% Mini-PROTEAN® TGX precast polyacrylamide gels (Bio-Rad). Protein from gels were transferred onto PVDF membranes and probed with the appropriate primary antibody overnight. Membranes were washed between each antibody incubation and subsequently probed with the appropriate HRP-conjugated secondary antibody (Life Technologies). The Clarity Western ECL Substrate (Bio-Rad) was used to detect bands.
Following LPS stimulation and subsequent TNFα production, the TLR4 pathway leads to activation of NF-κB and the three MAPK pathways through the MyD88-dependent pathway. Both NF-κB and MAPK pathways directly control the transcription of the IL-6 and iNOS inflammatory genes, as well as control the mRNA stability of those transcripts. For the activated MΦ-cTLR4 cells, ERK1/2 phosphorylation is expected if the MyD88 dependent pathway and subsequent downstream TRAF6 activation has occurred. […]

MΦ-cTLR4 cells [5] = test: Western blot for iNOS in MΦ-cTLR4 cells; type: cell-based, murine; conditions: 24 h treatment; CID 50 nM, LPS 100 ng/mL
Experimental: as §1

[6] = tested on: MΦ-cTLR4 cells in Matrigel plug; test: In vivo Matrigel plug with MΦ-cTLR4 cells; set-up: species or system BALB/c mice; conditions: 14 day; CID drug 2 mg/kg intraperitoneal every other day; s.c. Matrigel plug
Experimental: Four groups of 4 week old female BALB/c mice (total of 16 mice) were used in this in vivo study. The four groups consisted of: 7 day non-treated mice, 7 day CID-treated mice, 14 day non-treated mice, and 14 day CID-treated mice. At day of injection, pre-plated MΦ-cTLR4 cells were lifted off and counted. 0.5×10^6 cells were s.c. injected mixed in with Matrigel into the right back dorsal area of the mouse. Before placing mouse back in cage, mice were injected with the first intraperitoneal CID drug dose (2 mg/kg mouse weight). Treatment groups were given CID drug injections every other day during the course of the experiment (FIG. 20).

[7] = tested on: MΦ-cTLR4 cells co-cultured with rat aortic ECs (RAECs); test: Co-culture tube formation (angiogenesis) assay; type: cell-based; conditions: CID 50 nM or LPS 100 ng/mL added to the medium
Text: Untreated MΦ-cTLR4 cells co-cultured with rat aortic ECs (RAECs), with no added factors to the medium, had the least amount of isolated segments, the least amount of branches, and the most amount of branching interval.

bEnd.3 endothelial cells = test: Endothelial cell activation by MΦ-cTLR4 conditioned media (flow cytometry for VCAM-1 and ICAM-1); type: cell-based, mouse; conditions: media from MΦ-cTLR4 treated 6 h (TNFα 20 ng/mL, CID 50 nM); bEnd.3 incubated 12 h
Experimental: MΦ-cTRL4 conditioned media, following a 6 hour treatment in 6-well plates (1×10^6 cells/well), was transferred to plated bEnd.3 cells in a 12-well plate (0.2×10^6 cells/well). Before media transfer, TNFα neutralizing and IgG isotype antibody (1 μg/mL) were incubated in media for 15 minutes. Media was then added to bEnd.3 cells for 12 hours. Following incubation, bEnd.3 cells were trypsinized and stained for ICAM-1 and VCAM-1. Cell cytometry was performed on a FACSCanto II Cell Analyzer (BD Biosciences) equipped with 488 nm and 647 nm lasers. Typically, 10,000 cells were analyzed per sample. Experiments were repeated at least three times. Non-specific staining was evaluated using a monoclonal antibody for IgG2b and IgG2a (eBioscience).

[8] = tested on: IRF3 phosphorylation in MΦ-cTLR4 cells; test: Western blot for p-IRF3 and total IRF3 (MyD88-independent pathway); type: cell-based, murine; conditions: CID 50 nM, LPS 100 ng/mL; compared to vehicle
Experimental: as §1
To determine if the MΦ-cTLR4 cells were signaling through the MyD88-independent pathway, we tested for phosphorylated IRF3. […] The IRF3 phosphorylation of the CID- and LPS-treated MΦ-cTLR4 cells starts to decrease following the 2 hour timepoint and subsequently reaches similar levels as vehicle at the 6 and 12 hour timepoints.

[9] = 24 h treatment, CID drug 50 nM, compared to uninduced controls

Row | Molecule | VEGF expression compared to controls (MΦ-cTLR4 cells [1]) | time to upregulation of key pro-inflammatory markers after CID drug addition (MΦ-cTLR4 cells [2]) [h] | IL-6 levels (MΦ-cTLR4 cells [2]; [9]) | TNFα levels (MΦ-cTLR4 cells [2]; [9]) | time IL-6 levels stayed activated (MΦ-cTLR4 cells [2]; constant CID drug (50 nM) in media) [h] | time elevated levels of TNFα, IL-6 and iNOS are maintained (MΦ-cTLR4 cells [2]; constant CID drug (50 nM) in media, changed every 24 h) | dose producing the maximum activation of MΦ-cTLR4 cells (IL-6 ELISA) (MΦ-cTLR4 cells [2]; titration 50 nM-250 nM, 24 h treatment) | NF-κB promoter activation (luciferase activity normalized to Renilla) [3] | ERK1/2 phosphorylation (p-ERK/total ERK ratio relative to zero timepoint) [4] | iNOS expression (130 kDa band) (MΦ-cTLR4 cells [5]) | co-localization of GFP MΦ-cTLR4 cells and iNOS regions in plug [6] | branching interval vs untreated co-cultures [7] | isolated segments [7] | number of branches vs untreated co-cultures [7] | number of master segments compared to the control [7] | EC positive for ICAM-1 (bEnd.3 endothelial cells) [%] | EC positive for VCAM-1 (bEnd.3 endothelial cells) [%] | time of activation peak of p-IRF3/total IRF3 ratio [8] [h] | VEGF compared to the control, IFN-γ alone or in cocktail (MΦ-cTLR4 cells [1]; IFN-γ alone or cocktail with CID or LPS (FIG. 22B))
1 | CC[C@H](C(=O)N1CCCC[C@H]1C(=O)O[C@H](CCc1ccc(OC)c(OC)c1)c1cccc(OCC(=O)NCC(CNC(=O)COc2cccc([C@@H](CCc3ccc(OC)c(OC)c3)OC(=O)[C@@H]3CCCCN3C(=O)[C@@H](CC)c3cc(OC)c(OC)c(OC)c3)c2)CN(C)C)c1)c1cc(OC)c(OC)c(OC)c1 [CID drug, AP20187] | significantly decreased amounts of VEGF | 6 | increased | increased | 72 | at least 48 hours | at least 50 nM | increased NF-κB promoter activation | upregulation of ERK1/2 phosphorylation at the 5 minute timepoint | much lower intensity than the LPS-treated cells | occurrences of GFP/iNOS co-localization | smaller branching interval | slightly more isolated segments than the untreated group | much more branches | not significantly different | 64.4 | 93.7 | 2 | –
2 | lipopolysaccharides [LPS] | significantly decreased amounts of VEGF | – | – | – | – | – | – | – | – | substantial increase in iNOS expression | – | smaller branching interval | highest number of isolated segments | much more branches | not significantly different | – | – | 2 | –
3 | TNFα: recombinant mouse TNFα purchased from Sigma (protein) LRSSSQNSSDKPVAHVVANHQVEEQLEWLSQRANALLANGMDLKDNQLVVPADGLYLVYSQVLFKGQGCPDYVLLTHTVSRFAISYQEKVNLLSAVKSPCPKDTPEGAELKPWYEPIYLGGVFQLEKGDQLSAEVNLPKYLDFAESGQVYFGVIAL | – | – | – | – | – | – | – | – | – | – | – | – | – | – | – | 57.2 | 93.5 | – | –
4 | IFN-γ: cytokine IFN-γ used to treat MΦ-cTLR4 cells (protein, UniProt P01580 23-155, looked up) Interferon gamma: HGTVIESLESLNNYFNSSGIDVEEKSLFLDIWRNWQKDGDMKILQSQIISFYLRLFEVLKDNQAISNNISVIESHLITTFFSNSKAKKDAFMSIAKFEVNNPQVQRQAFNELIRVVHQLLPESSLRKRKRSRC | – | – | – | – | – | – | – | – | – | – | – | – | – | – | – | – | – | – | significant decrease in VEGF
